Laboratory results from the supplement of paper PMC7287046.

Assays:
Conditions in all cases: exposure time: 72 h
[1] = test system: SF539; assay: Bliss synergy score (Combenefit); higher = more synergy; extreme values may be limits of the assay
Description: (§1)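 The same 6x6 dose matrices of drug pairs on glioma cell lines (72 h, CellTiter-Glo viability normalised to DMSO, triplicate) were scored with Combenefit. The Loewe, Bliss and HSA synergy scores are given; paper thresholds are Loewe 7.8 and Bliss 2.5.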

[2] = test system: U118; assay: as above
Description: as §1

[3] = test system: T98G; assay: as above
Description: as §1

[4] = test system: KNS-42; assay: as above
Description: as §1

[5] = test system: U251; assay: as above
Description: as §1

[6] = test system: SNB75; assay: as above
Description: as §1

[7] = test system: SF268; assay: as above
Description: as §1

[8] = test system: U87; assay: as above
Description: as §1

[9] = test system: AM-38; assay: as above
Description: as §1

[10] = test system: SF539; assay: Loewe synergy score (Combenefit); higher = more synergy; extreme values may be limits of the assay
Description: as §1

[11] = test system: U118; assay: as above
Description: as §1

[12] = test system: T98G; assay: as above
Description: as §1

[13] = test system: KNS-42; assay: as above
Description: as §1

[14] = test system: U251; assay: as above
Description: as §1

[15] = test system: SNB75; assay: as above
Description: as §1

[16] = test system: SF268; assay: as above
Description: as §1

[17] = test system: U87; assay: as above
Description: as §1

[18] = test system: AM-38; assay: as above
Description: as §1

[19] = test system: SF539; assay: Chou-Talalay combination index (dimensionless); higher = less synergy (more antagonism)
Description: (§2)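 Glioma cell lines were treated for 72 h with a 6x6 matrix of two drugs, each in twofold dilutions with the top dose at the single-drug IC50. Viability was read by CellTiter-Glo and normalised to DMSO controls, in triplicate. The Chou-Talalay combination index was computed by the median effect principle; CI < 0.8 means synergy.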

[20] = test system: U118; assay: as above
Description: as §2

[21] = test system: KNS42; assay: as above
Description: as §2

[22] = test system: T98; assay: as above
Description: as §2

[23] = test system: U251; assay: as above
Description: as §2

[24] = test system: SNB75; assay: as above
Description: as §2

[25] = test system: AM38; assay: as above
Description: as §2

[26] = test system: SF268; assay: as above
Description: as §2

[27] = test system: U87; assay: as above
Description: as §2

[28] = test system: SF539; assay: HSA synergy score (Combenefit); higher = more synergy
Description: as §1

[29] = test system: U118; assay: as above
Description: as §1

[30] = test system: T98G; assay: as above
Description: as §1

[31] = test system: KNS-42; assay: as above
Description: as §1

[32] = test system: U251; assay: as above
Description: as §1

[33] = test system: SNB75; assay: as above
Description: as §1

[34] = test system: SF268; assay: as above
Description: as §1

[35] = test system: U87; assay: as above
Description: as §1

[36] = test system: AM-38; assay: as above
Description: as §1

| SMILES | Bliss synergy score [1] | Bliss synergy score [2] | Bliss synergy score [3] | Bliss synergy score [4] | Bliss synergy score [5] | Bliss synergy score [6] | Bliss synergy score [7] | Bliss synergy score [8] | Bliss synergy score [9] | Loewe synergy score [10] | Loewe synergy score [11] | Loewe synergy score [12] | Loewe synergy score [13] | Loewe synergy score [14] | Loewe synergy score [15] | Loewe synergy score [16] | Loewe synergy score [17] | Loewe synergy score [18] | Chou-Talalay combination index [19] | Chou-Talalay combination index [20] | Chou-Talalay combination index [21] | Chou-Talalay combination index [22] | Chou-Talalay combination index [23] | Chou-Talalay combination index [24] | Chou-Talalay combination index [25] | Chou-Talalay combination index [26] | Chou-Talalay combination index [27] | HSA synergy score [28] | HSA synergy score [29] | HSA synergy score [30] | HSA synergy score [31] | HSA synergy score [32] | HSA synergy score [33] | HSA synergy score [34] | HSA synergy score [35] | HSA synergy score [36] |
| --- | --- | --- | --- | --- | --- | --- | --- | --- | --- | --- | --- | --- | --- | --- | --- | --- | --- | --- | --- | --- | --- | --- | --- | --- | --- | --- | --- | --- | --- | --- | --- | --- | --- | --- | --- | --- |
| Cc1cc([C@@H](C)Nc2ccccc2C(=O)O)c2nc(N3CCOCC3)cc(=O)n2c1 [AZD6482] + CCOc1nc(NC(=O)Cc2cc(OC)ccc2OC)cc(N)c1C#N [JNK inhibitor VIII] | 0.0312 | 2.95 | 10.8 | 0.255 | 0.00428 | 6.97 | 0.107 | 1 | 14.5 | 1.84 | 2.68 | 11.5 | 0.866 | 0.00428 | 6.97 | 0.654 | 1 | 15.4 | 0.545 | 0.669 | 0.994 | 0.758 | 0.731 | 1 | 0.77 | 0.792 | 0.576 | 7.49 | 8.89 | 11.5 | 0.866 | 0.00428 | 6.97 | 4.35 | 1 | 17 |
| O=c1[nH]c2ccccc2n1C1CCN(Cc2ccc(-c3[nH]c4cc5ncnc5cc4nc3-c3ccccc3)cc2)CC1 [Akt inhibitor VIII] + N#CC(c1ccnc(NCCc2cccnc2)n1)c1nc2ccccc2s1 [AS601245] | 0.0617 | 5.46 | 9.74 | 0.964 | 3.96 | 1.31 | 1.39 | 10.4 | 8.16 | 0.638 | 7.71 | 9.66 | 1.66 | 3.96 | 0.62 | 0.94 | 6.85 | 11.2 | 0.966 | 0.264 | 0.979 | 0.031 | 0.641 | 0.89 | 0.584 | 0.805 | 0.0154 | 0.651 | 12.4 | 17.9 | 3.65 | 3.96 | 5.96 | 8.59 | 12.3 | 14 |
| C[C@@H](Oc1cc(-c2cnn(C3CCNCC3)c2)cnc1N)c1c(Cl)ccc(F)c1Cl [Crizotinib] + C=CCc1cccc(/C=N/NC(=O)CN2CCN(Cc3ccccc3)CC2)c1O [PAC-1] | 1.39 | 0.539 | 2.4 | 7.19 | 0.0857 | 0.417 | 0 | 4.47 | 0.773 | 0.62 | 0.609 | 2.4 | 15.3 | 1.22 | 0.297 | 0.692 | 4.47 | 0.141 | 0.877 | 0.584 | 0.421 | 0.476 | 0.821 | 0.951 | 0.937 | 1.04 | 0.154 | 3.88 | 2.29 | 2.4 | 16.5 | 1.43 | 5.78 | 1.21 | 4.47 | 0.987 |
| C[C@@H](Oc1cc(-c2cnn(C3CCNCC3)c2)cnc1N)c1c(Cl)ccc(F)c1Cl [Crizotinib] + CCOc1nc(NC(=O)Cc2cc(OC)ccc2OC)cc(N)c1C#N [JNK inhibitor VIII] | 5.02 | 5.36 | 0.922 | 1.72 | 4.44 | 0 | 2.4 | 0 | 0 | 2.32 | 4.11 | 2.42 | 2.75 | 6.52 | 4.28 | 1.66 | 0 | 0.954 | 0.458 | 0.732 | 0.929 | 0.945 | 0.838 | 0.972 | 1.13 | 0.637 | 2.67 | 13.6 | 9.81 | 2.65 | 5.67 | 6.52 | 10.4 | 6.62 | 0 | 1.09 |
| C[C@@H](Oc1cc(-c2cnn(C3CCNCC3)c2)cnc1N)c1c(Cl)ccc(F)c1Cl [Crizotinib] + Cc1cc([C@@H](C)Nc2ccccc2C(=O)O)c2nc(N3CCOCC3)cc(=O)n2c1 [AZD6482] | 0.821 | 0.491 | 4.32 | 3.3 | 12.8 | 0.559 | 0.801 | 5.48 | 4.62 | 2.57 | 3.69 | 4.32 | 3.35 | 16.2 | 3.14 | 3.44 | 5.48 | 3.58 | 0.842 | 0.844 | 0.887 | 0.543 | 0.567 | 0.802 | 0.52 | 0.786 | 0.652 | 10.7 | 3.87 | 4.32 | 4.57 | 16.2 | 9.49 | 6.69 | 5.48 | 11.9 |
| CC(=O)O[C@@]12CO[C@@H]1C[C@H](O)[C@@]1(C)C(=O)[C@H](O)C3=C(C)[C@@H](OC(=O)[C@H](O)[C@@H](NC(=O)OC(C)(C)C)c4ccccc4)C[C@@](O)([C@@H](OC(=O)c4ccccc4)[C@H]21)C3(C)C [Docetaxel] + C#Cc1cccc(Nc2ncnc3cc(OCCOC)c(OCCOC)cc23)c1 [Erlotinib] | 0 | 0.59 | 0.0594 | 2.96 | 2.48 | 4.1 | 0.0561 | 0 | 0 | 1.4 | 0.504 | 8.54 | 7.84 | 5.05 | 5.52 | 5.33 | 0.182 | 0 | 0.998 | 0.956 | 0.834 | 0.713 | 0.678 | 0.781 | 0.962 | 0.934 | 1.1 | 2.49 | 6.82 | 9.15 | 7.84 | 5.05 | 5.52 | 9.27 | 3.14 | 0 |
| CC(=O)O[C@@]12CO[C@@H]1C[C@H](O)[C@@]1(C)C(=O)[C@H](O)C3=C(C)[C@@H](OC(=O)[C@H](O)[C@@H](NC(=O)OC(C)(C)C)c4ccccc4)C[C@@](O)([C@@H](OC(=O)c4ccccc4)[C@H]21)C3(C)C [Docetaxel] + CCC(=O)N1CCN(c2ccc(-n3c(=O)ccc4cnc5ccc(-c6cnc7ccccc7c6)cc5c43)cc2C(F)(F)F)CC1 [Torin1] | 0 | 0.102 | 0.32 | 0.0301 | 0.704 | 0.14 | 2.06 | 14 | 0 | 2.76 | 1.75 | 8.3 | 10.2 | 5.9 | 1.3 | 6.57 | 20.6 | 3.28 | 0.976 | 0.949 | 0.95 | 0.53 | 0.732 | 0.749 | 0.895 | 0.8 | 0.448 | 2.76 | 4.14 | 9.53 | 14.4 | 6.14 | 3.38 | 12.8 | 28.7 | 9.71 |
| CC(=O)O[C@@]12CO[C@@H]1C[C@H](O)[C@@]1(C)C(=O)[C@H](O)C3=C(C)[C@@H](OC(=O)[C@H](O)[C@@H](NC(=O)OC(C)(C)C)c4ccccc4)C[C@@](O)([C@@H](OC(=O)c4ccccc4)[C@H]21)C3(C)C [Docetaxel] + CCCCCCCCCCCC1=C(O)C(=O)C=C(O)C1=O [Embelin] | 0.24 | 0.219 | 0.71 | 3.74 | 3.66 | 0.144 | 0.0571 | 0.7 | 0 | 2.91 | 0.129 | 2.71 | 3.76 | 0.944 | 0.195 | 0 | 0.7 | 0.74 | 0.835 | 0.982 | 0.349 | 0.911 | 0.659 | 0.849 | 1.08 | 1.01 | 0.827 | 3.01 | 0.358 | 2.71 | 6.6 | 9.62 | 3.76 | 1.82 | 0.7 | 1.16 |
| CC(=O)O[C@@]12CO[C@@H]1C[C@H](O)[C@@]1(C)C(=O)[C@H](O)C3=C(C)[C@@H](OC(=O)[C@H](O)[C@@H](NC(=O)OC(C)(C)C)c4ccccc4)C[C@@](O)([C@@H](OC(=O)c4ccccc4)[C@H]21)C3(C)C [Docetaxel] + N#CC(c1ccnc(NCCc2cccnc2)n1)c1nc2ccccc2s1 [AS601245] | 0.511 | 0.0703 | 4.9 | 3.75 | 5.06 | 2.39 | 0.207 | 0.347 | 0.0376 | 2.08 | 0.96 | 10.3 | 3.02 | 0.486 | 5.22 | 0.451 | 0.835 | 0.0158 | 0.69 | 0.875 | 0.832 | 0.553 | 0.673 | 0.738 | 1.13 | 0.887 | 0.00672 | 7.49 | 2.85 | 13 | 11.3 | 8.45 | 10.1 | 4.46 | 1.81 | 0.465 |
